Data set [1] has as its target T1, FGFR3 kinase recombinant protein (Homo sapiens, UniProt P22607).
T1 construct: purchased BPS Bioscience
Nature of the data set: Inhibition of FGFR kinase activity, ADP-Glo method. The format is biochemical. The following applies: 30 min preincubation. The protocol: (§1) The inhibitory activities of the test substances on FGFR kinase were determined by the ADP-Glo method. The human FGFR1, FGFR2 and FGFR4 kinase recombinant proteins and kinase activity assay kit ADP-Glo™ were purchased from Promega, and the FGFR3 kinase recombinant protein was purchased from BPS Bioscience. The test substance, which was diluted gradiently from 1000 nM, was incubated with the FGFR1, FGFR2, FGFR3 or FGFR4 kinase recombinant protein for 30 minutes, reacted with the substrate in the presence of ATP, and ADP-Glo™ detected the generated ADP and further produced chemiluminescence signals. Microplate reader (Perkin Elmer, Envision) were used to determine the reading for each well, and the origin 7.5 was used to calculate and analyze the IC50, i.e. the concentration at which 50% inhibition occurred.
(§2) The inhibition of the compounds of the present invention on FGFR1-4 kinase activity was measured by the above test, and the measured IC50 (nM) values are shown in Table 1.

Data set [2] concerns the target T2, FGFR2 kinase recombinant protein (Homo sapiens, UniProt P21802).
T2 construct: purchased Promega
Put plainly: Inhibition of FGFR kinase activity, ADP-Glo method. Conditions: 30 min preincubation. The format is biochemical. The protocol:
as §1, §2

Data set [3] addresses T3, FGFR1 kinase recombinant protein (Homo sapiens, UniProt P11362).
T3 construct: purchased Promega
Put plainly: Inhibition of FGFR kinase activity, ADP-Glo method. The format is biochemical. Conditions: 30 min preincubation. On the procedure:
as §1, §2

Data set [4] addresses T4, FGFR4 kinase recombinant protein (Homo sapiens, UniProt P22455).
T4 construct: purchased Promega
Nature of the data set: Inhibition of FGFR kinase activity, ADP-Glo method. The format is biochemical. The following applies: 30 min preincubation. The protocol: as §1, §2

The next data set concerns SK-hep-1. Nature of the data set: HCC cell proliferation inhibition, SRB method. The format is cell-based. The following applies: Homo sapiens, SK-HEP1, 72 hours. The protocol: (§3) The inhibitory activities of the compounds of the examples on cell proliferation in vitro were tested using five hepatocellular carcinoma cell lines: Hep3B, Huh7, JHH-7, SK-hep-1, SNU423. The above cells were all from ATCC (American Type Culture Collection). Among them, Hep3B, Huh-7, JHH-7 these three cell lines all have FGF19 gene amplification (increased copy number) and increased mRNA expression level, as well as high level expression of FGFR4 and KLB gene mRNA; SK-hep-1, SNU423 cell lines have no FGF19 gene amplification and the expression level of FGF19 mRNA was very low (Barretina J, Caponigro G, et al. Nature 2012; 483: 603-7.).
(§4) Cell proliferation was measured using the SRB (Sulforhodamine-B, sulforhodamine B) method. The cells were cultured to a cell fusion of more than 90% and then trypsinized. After counting, the cells were inoculated into 96-well plates at 6000 cells/well. After adherent culture overnight, the test compound was dissolved in DMSO and diluted with complete medium, added to the culture wells to form a 5-fold dilution of 10 concentration gradients from 10 μM. The cells were incubated for further 72 hours, 50 μl of 50% trichloroacetic acid was added to each well and fixed at 4° C. for 1 hour. The trichloroacetic acid in each well was discarded and washed 5 times with 300 μl of double distilled water. After drying at room temperature, 50 μl of 0.4% SRB dye solution (1% acetic acid/0.4% SRB) was added to each well to react for 15 min. The dye solution of each well was discarded, washed 6-7 times with 1% acetic acid, and dried at room temperature. 200 μl of 10 mM Tris solution (pH=10.5) was added to each well and shaken until the solution was clear. The absorbance at 490 nm of each well was measured by a microplate reader. The reading of the wells where the concentration of the test compound was 0 was used as a control, and fitted with Origin 7.5 software, the IC50 value (nM) of the test substance for inhibiting cell proliferation was calculated.
(§5) The antitumor cell proliferation activities of the compounds of the present invention were measured by the above test, and the measured IC50 (nM) values are shown in Table 2.

A further data set has as its system SNU387. Nature of the data set: HCC cell proliferation inhibition, SRB method. Conditions: Homo sapiens, SNU-387, 72 hours. The format is cell-based. The protocol:
[Worded in the source for another cell line; this cell line is reported under the same test.] as §3, §4, §5

In the next data set the test system is HUH-7. Put plainly: HCC cell proliferation inhibition, SRB method. The format is cell-based. Conditions: Homo sapiens, 72 hours. On the procedure:
as §3, §4, §5

The test system of another data set is Hep3B. Put plainly: HCC cell proliferation inhibition, SRB method. The format is cell-based. Conditions: Homo sapiens, 72 hours. The protocol: as §3, §4, §5
The next data set has as its system JHH-7. Nature of the data set: HCC cell proliferation inhibition, SRB method. The format is cell-based. Conditions: JHH7, 72 hours. On the procedure: as §3, §4, §5
Data set [5] deals with Hep3B transplantation tumor. Nature of the data set: HCC cell subcutaneous transplantation tumor growth inhibition test in nude mice. Conditions: for growth inhibition of the transplantation tumor: 50 mg/kg, intragastric, BID 21 days, Hep3B nude mice; for adverse reactions (water and food take, activity, body weight) during administration: all dose groups 50, 100, 150 mg/kg BID, 21 days, tumor-bearing nude mice. The format is in vivo. On the procedure:
The Hep3B cells in the logarithmic growth phase were cultured and collected, and subcutaneously inoculated into the right back of nude mice (female Balb/c Nude mice, from Beijing Vitalriver) at 1×10^7 cells/mouse. When the tumor grew to 50-300 mm^3, tumor-bearing nude mice were randomly grouped, 6 animals per group. Subsequently, each group of animals was administered at the following dose, and the day of the first dose was defined as the first day of the test.
Blank solvent (ultra-pure water) control group, compound 1, compound 2 were respectively set to 50 mg/kg, 100 mg/kg, 150 mg/kg three dose groups, intragastric administration, twice a day (BID), for 21 consecutive days. The state of the animals was observed daily during the administration; the body weight was measured once a week before the first administration; and the body weight was measured twice a week after the start of the administration. The size of the transplantation tumor was measured every 3 days after the start of administration. Tumor volume (TV)=½×a×b^2, wherein, a and b represent the length and width of the tumor, respectively. The relative tumor volume (RTV) was calculated based on the measured results, RTV=Vt/V0×100, wherein V0 is the measured tumor volume on the day of the cage (i.e., day 0), and Vt is the tumor volume at each measurement.
After establishing the Hep3B nude mice transplantation tumor model according to the method described above, the mice were divided into three groups and intragastrically administered with a blank solvent (ultra-pure water) control, compound 1 (15 mg/kg, BID), sorafenib (prepared according to the method described in the literature CN1721397A and identified) respectively, 30 mg/kg, once a day (QD), for 21 consecutive days. The growth inhibition on the transplantation tumor of the test substances, animal status and body weight were evaluated in the same manner as above. The tumor volume (TV) was measured and the tumor inhibition rate was calculated according to the tumor inhibition rate (TGI)=(1−T/C)×100%. C: average tumor volume of the control group; T: average tumor volume of the administration group.

The subject of data set [6] is HCC cells with FGF19 gene amplification. Put plainly: HCC cell line panel proliferation, selectivity conclusion. The format is cell-based. Conditions: conclusion from Table 2. The protocol: as §3, §4

T1 sequence (P22607 23-806): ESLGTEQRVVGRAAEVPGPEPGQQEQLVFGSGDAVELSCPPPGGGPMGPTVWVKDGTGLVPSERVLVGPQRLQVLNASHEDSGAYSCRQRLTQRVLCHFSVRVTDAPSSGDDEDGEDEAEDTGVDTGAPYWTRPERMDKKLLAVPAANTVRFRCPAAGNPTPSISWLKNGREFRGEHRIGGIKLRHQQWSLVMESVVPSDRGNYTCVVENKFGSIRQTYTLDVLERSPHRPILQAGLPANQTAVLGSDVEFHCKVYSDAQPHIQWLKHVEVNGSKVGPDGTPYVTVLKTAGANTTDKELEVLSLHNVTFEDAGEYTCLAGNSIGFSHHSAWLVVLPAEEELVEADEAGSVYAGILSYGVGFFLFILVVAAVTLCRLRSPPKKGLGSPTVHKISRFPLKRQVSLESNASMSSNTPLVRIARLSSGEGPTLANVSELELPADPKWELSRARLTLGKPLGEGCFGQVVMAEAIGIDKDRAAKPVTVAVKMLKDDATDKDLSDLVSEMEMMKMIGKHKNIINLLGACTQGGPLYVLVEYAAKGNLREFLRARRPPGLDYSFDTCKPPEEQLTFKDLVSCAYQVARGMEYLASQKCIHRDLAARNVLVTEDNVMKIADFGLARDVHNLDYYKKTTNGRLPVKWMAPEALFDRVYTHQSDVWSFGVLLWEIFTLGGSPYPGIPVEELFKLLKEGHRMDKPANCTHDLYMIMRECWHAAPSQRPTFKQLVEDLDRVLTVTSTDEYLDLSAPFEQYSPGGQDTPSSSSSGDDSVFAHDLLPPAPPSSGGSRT
T4 sequence (P22455 22-802): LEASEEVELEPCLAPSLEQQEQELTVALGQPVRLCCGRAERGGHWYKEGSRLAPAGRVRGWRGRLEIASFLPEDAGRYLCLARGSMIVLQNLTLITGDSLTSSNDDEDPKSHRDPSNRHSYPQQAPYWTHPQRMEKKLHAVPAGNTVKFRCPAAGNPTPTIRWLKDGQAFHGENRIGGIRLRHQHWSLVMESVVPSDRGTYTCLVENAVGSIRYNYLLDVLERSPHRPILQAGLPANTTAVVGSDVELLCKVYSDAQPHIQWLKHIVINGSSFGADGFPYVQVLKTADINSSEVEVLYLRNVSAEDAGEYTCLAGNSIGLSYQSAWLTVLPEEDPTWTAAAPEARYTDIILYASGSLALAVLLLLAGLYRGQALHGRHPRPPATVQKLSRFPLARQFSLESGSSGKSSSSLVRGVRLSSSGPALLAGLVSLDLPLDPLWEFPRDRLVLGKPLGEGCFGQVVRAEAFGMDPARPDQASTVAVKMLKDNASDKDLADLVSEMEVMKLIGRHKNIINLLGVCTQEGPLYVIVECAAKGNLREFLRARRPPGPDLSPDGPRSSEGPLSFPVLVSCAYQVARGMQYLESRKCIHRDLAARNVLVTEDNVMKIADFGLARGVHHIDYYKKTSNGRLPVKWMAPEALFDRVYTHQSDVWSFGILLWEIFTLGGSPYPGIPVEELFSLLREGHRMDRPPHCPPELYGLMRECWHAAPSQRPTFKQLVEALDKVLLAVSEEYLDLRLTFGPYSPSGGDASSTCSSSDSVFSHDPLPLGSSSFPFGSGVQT
T3 sequence (P11362 22-822): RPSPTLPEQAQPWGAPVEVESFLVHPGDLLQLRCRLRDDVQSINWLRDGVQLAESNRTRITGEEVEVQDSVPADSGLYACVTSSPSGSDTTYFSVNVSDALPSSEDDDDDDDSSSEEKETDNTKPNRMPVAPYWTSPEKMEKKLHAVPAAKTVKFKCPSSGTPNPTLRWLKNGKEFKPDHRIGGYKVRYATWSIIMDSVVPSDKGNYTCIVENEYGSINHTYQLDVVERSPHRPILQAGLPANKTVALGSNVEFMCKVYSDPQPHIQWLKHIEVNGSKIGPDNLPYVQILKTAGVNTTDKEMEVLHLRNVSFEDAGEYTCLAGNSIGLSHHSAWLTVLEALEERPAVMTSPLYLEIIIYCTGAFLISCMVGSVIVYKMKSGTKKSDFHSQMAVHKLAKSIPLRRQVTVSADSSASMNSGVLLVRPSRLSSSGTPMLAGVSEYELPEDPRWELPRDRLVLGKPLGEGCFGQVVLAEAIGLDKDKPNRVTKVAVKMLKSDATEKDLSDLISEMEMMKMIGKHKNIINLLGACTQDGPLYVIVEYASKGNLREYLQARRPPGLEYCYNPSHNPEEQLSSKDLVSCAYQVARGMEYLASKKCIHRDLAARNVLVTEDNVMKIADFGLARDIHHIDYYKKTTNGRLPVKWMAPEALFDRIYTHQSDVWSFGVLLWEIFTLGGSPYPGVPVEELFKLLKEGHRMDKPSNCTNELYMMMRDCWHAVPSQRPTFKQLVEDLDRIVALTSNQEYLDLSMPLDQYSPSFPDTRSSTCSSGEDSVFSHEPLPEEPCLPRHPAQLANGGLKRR
T2 sequence (P21802 22-821): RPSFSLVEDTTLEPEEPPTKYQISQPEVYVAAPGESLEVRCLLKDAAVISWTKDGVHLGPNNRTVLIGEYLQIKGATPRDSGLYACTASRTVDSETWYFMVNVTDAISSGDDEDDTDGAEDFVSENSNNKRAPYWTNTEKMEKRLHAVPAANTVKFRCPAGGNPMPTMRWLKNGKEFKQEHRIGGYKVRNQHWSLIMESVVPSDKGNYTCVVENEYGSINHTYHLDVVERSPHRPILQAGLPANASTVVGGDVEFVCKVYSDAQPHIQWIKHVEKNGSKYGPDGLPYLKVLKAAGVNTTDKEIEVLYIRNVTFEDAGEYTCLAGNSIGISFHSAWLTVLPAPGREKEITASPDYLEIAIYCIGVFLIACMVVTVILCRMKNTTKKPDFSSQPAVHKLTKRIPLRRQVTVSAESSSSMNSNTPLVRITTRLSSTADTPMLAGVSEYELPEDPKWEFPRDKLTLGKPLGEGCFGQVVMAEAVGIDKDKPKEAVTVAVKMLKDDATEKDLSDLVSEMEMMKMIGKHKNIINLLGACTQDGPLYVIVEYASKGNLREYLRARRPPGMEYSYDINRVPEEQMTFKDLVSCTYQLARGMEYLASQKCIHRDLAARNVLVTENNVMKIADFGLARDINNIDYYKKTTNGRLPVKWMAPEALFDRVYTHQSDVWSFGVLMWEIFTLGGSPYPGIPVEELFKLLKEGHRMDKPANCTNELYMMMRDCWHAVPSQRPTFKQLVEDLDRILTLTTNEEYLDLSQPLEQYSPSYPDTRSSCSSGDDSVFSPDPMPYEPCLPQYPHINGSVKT

With `C#CCNc1cc(NC(=O)N2CCCc3cc(CN4CCN(C)CC4=O)c(C=O)nc32)ncc1C#N` [Compound 1], the IC50 in data set [1] was over 1000 nM; in data set [2] it was over 1000 nM; in data set [3], over 1000 nM; in data set [4] it was 0.41 nM; in the data set with SK-hep-1, over 1000 nM; with SNU387 it was over 1000 nM. Further, the IC50 in the data set with HUH-7 came out at 4 nM; with Hep3B it was 0.35 nM; in the data set on JHH-7 it was 3 nM. For the same compound, the “growth inhibition of the transplantation tumor” value in [5] is reported as “significant”. Moreover, the “adverse reactions (water and food take, activity, body weight) during administration” value in data set [5] is reported as “no adverse reactions occurred”. Also, the “efficacy compared with sorafenib 30 mg/kg QD” value in data set [5] (compound 1 15 mg/kg BID, Hep3B nude mouse transplantation tumor model) is “superior to that of sorafenib”. Further, the “selective inhibitory effect on HCC cells with FGF19 gene amplification” value (“selective inhibitory effect on HCC cells” for short) in data set [6] is “significant selective inhibitory effect”.
In the case of `C#CCCNc1cc(NC(=O)N2CCCc3cc(CN4CCN(C)CC4=O)c(C=O)nc32)ncc1C#N` [Compound 2], the half-inhibitory concentration (IC50) was over 1000 nM in [1]; over 1000 nM in data set [2]; over 1000 nM in data set [3]; 0.33 nM in data set [4]; over 1000 nM in the data set with SK-hep-1; over 1000 nM in the data set on SNU387. Moreover, the values for the IC50 in the data set on HUH-7, with Hep3B and in the data set with JHH-7 were 2.9 nM, 0.4 nM and 2.6 nM, respectively. Moreover, the “growth inhibition of the transplantation tumor” value in [5] is on record as “significant”. Besides, the “adverse reactions (water and food take, activity, body weight) during administration” value in [5] is recorded as “no adverse reactions occurred”. Moreover, the “selective inhibitory effect on HCC cells” value in [6] was “significant selective inhibitory effect”.
For `C#CCCNc1cc(NC(=O)N2CCCc3cc(CN4CCOCC4=O)c(C=O)nc32)ncc1C#N` [Compound 3], the IC50 in data set [1] was over 1000 nM; in data set [2] it was over 1000 nM; in [3] it was over 1000 nM; in data set [4] it was 0.62 nM; with SNU387, over 1000 nM; in the data set with HUH-7, 5.7 nM. Besides, in the data set with Hep3B, the IC50 stood at 0.62 nM. Further, the “selective inhibitory effect on HCC cells” value in data set [6] is reported as “significant selective inhibitory effect”.
For `[2H]C([2H])([2H])N1CCN(Cc2cc3c(nc2C=O)N(C(=O)Nc2cc(NCCC#C)c(C#N)cn2)CCC3)C(=O)C1` [Compound 4], the IC50 in [1] is over 1000 nM; in data set [2], over 1000 nM; in data set [3], over 1000 nM; in data set [4], 0.37 nM; with SNU387, over 1000 nM; with HUH-7, 2.8 nM. The compound further gave an IC50 in the data set on Hep3B of 0.36 nM. Further, the “selective inhibitory effect on HCC cells” value in data set [6] is listed as “significant selective inhibitory effect”.
Turning to `C#CCCCNc1cc(NC(=O)N2CCCc3cc(CN4CCN(C)CC4=O)c(C=O)nc32)ncc1C#N` [Compound 6], the 50% inhibitory concentration (IC50) is over 1000 nM in data set [1]; over 1000 nM in data set [2]; over 1000 nM in data set [3]; 0.59 nM in [4]; over 1000 nM with SNU387; 4.9 nM with HUH-7. The same compound showed an IC50 in the data set on Hep3B of 0.53 nM. Moreover, the “selective inhibitory effect on HCC cells” value in data set [6] was “significant selective inhibitory effect”.

(Values after patent US11046684B2, “Compound for selectively inhibiting kinase and use thereof” (SHANGHAI ZHEYE BIOTECHNOLOGY LIMITED-LIABILITY COMPANY, priority 2017, dated 2021).)
